# From patent US20210106566A1, “PHARMACEUTICAL COMPOSITION FOR TREATING AND/OR PREVENTING PERIPHERAL NEUROPATHY OR SPINAL CORD INJURY” (NATIONAL UNIVERSITY CORPORATION NAGOYA UNIVERSITY, priority 2015, published 2021)
# How the values were obtained:
# JNK1/2/3 = assay: Western blot of JNK1/2/3 phosphorylation in primary motor neurons; format: cell-based, mouse
# Procedure: Zonisamide (0, 10, or 20 μmol/L) was added to primary motor neurons 4 hours after the beginning of culture. The cells were rinsed with a buffer (50 mmol/L HEPES pH 7.0, 150 mmol/L NaCl, 1% glycerol, 1% TritonX-100, 1.5 mmol/L MgCl2, 1 mmol/L EGTA, 100 mmol/L NaF, 10 mmol/L sodium pyrophosphate, […], 1 mmol/L PMSF, and 1 mmol/L sodium orthovanadate (V)) at days 2 and 3. Total protein was dissolved in 1× Laemmli buffer, separated on a 10% SDS polyacrylamide gel, and transferred to a polyvinylidene fluoride membrane (Immobilon-P, Millipore). The membrane was washed with Tris-buffered physiological saline with 0.05% Tween 20 (TBS-T) and blocked with TBS-T containing 3% skim milk at room temperature for 1 hour. The membrane was incubated with any of anti-Erk1/2 (#4696, Cell Signaling), anti-phosphorylated Erk1/2 (#4370, Cell Signaling), or anti-phosphorylated JNK1/2/3 (#4668, Cell Signaling) antibody (diluted at 1:1000) at 4° C. overnight. The membrane was washed with TBS-T for 10 minutes three times and incubated with […] secondary antibody conjugated to horseradish peroxidase (HRP, GE Healthcare, 1:6000) at room temperature for 1 hour. The blot was detected with Amersham ECL Western blotting detection reagent (GE Healthcare) and quantified with ImageJ program (http://imagej.nih.gov/ij/index.html).
# [1] = tested on: mouse sciatic nerve autologous transplantation model; assay: Mouse sciatic nerve autologous transplantation model: walking track analysis (SFI); format: in vivo; conditions: 30 mg/kg/day, 6 to 8 weeks after surgery
# From the text: Adult male C57BL/6J mice (8 weeks old; 19.5-22.0 g) were purchased from Charles River. The mice were anesthetized with isoflurane and underwent gluteal muscle incision under a sterile condition to expose the sciatic nerve in the left leg. The sciatic nerve was cut at the following two sites (1) and (2): (1) the site 3 mm distal to the first bifurcation of biceps femoris (hereinafter referred to as proximal transection site) (2) the site 3 mm distal to the proximal transection site (hereinafter referred to as distal transection site) The excised nerve segment with a length of 3 mm was confirmed to be completely cut at the two sites. […] Myelin sheath formation in the sciatic nerve was analyzed in six mice in each group. […] The number and area of myelinated axons in the sciatic nerve were manually measured using ImageJ software in a blinded fashion. Motor function was assessed every week in three mice in each group using the walking track analysis. In the walking track analysis, footprints of both hindlimbs were recorded when mice were allowed to walk freely on a runway. Sciatic function index (SFI; Bain et al. Plast Reconstr Surg 83: 129-138 (1989)) was calculated by measuring the width and length of footprints of both legs in a blinded fashion. […] Footprints were recorded on six to eight thin boards.
# primary motor neurons [2] = assay: Neurite outgrowth in primary spinal cord motor neurons; format: cell-based, mouse
# Procedure: Primary cultured mouse embryonic spinal cord motor neurons were isolated from spinal cord embryo of C57BL/6J mouse on 13.5th day of embryonic stage (E13.5). Solutions of zonisamide in DMSO were prepared at concentrations from 200 μmol/L to […] and then added to the culture medium to obtain the final concentration of zonisamide from 1 μmol/L to 20 μmol/L. The culture medium contained 0.5% DMSO whether or not it contained zonisamide. The cells were seeded at 4.0×10^3 cells/cm^2 in a 96-well plate (Asahi Techno Glass) coated with poly-L-lysine and laminin and maintained in Sumilon neuron culture medium (Sumitomo Bakelite). After incubation for 2 days, the cells were fixed in PBS with 4% […] at ordinary temperature for 15 minutes. The cells were washed with PBS once, blocked with PBS containing 2% goat serum and 0.1% Triton-X, and immunostained with mouse anti-tau-1 monoclonal antibody (1:500, MAB3420, Millipore) and Alexa Fluor 555-conjugated goat anti-mouse secondary antibody (1:1000, Life Technologies). Neurites were automatically analyzed on ArrayScan VTI HCS Reader. The neurite length and the number of nerve branch points were quantified by evaluating the longer 200 neurites. The ratio of neurite-bearing cells was determined by counting cells having a neurite length of 25 micron or more in each well.
# primary motor neurons [3] = assay: Scratch assay of neurite regeneration; format: cell-based, mouse; conditions: 0, 1, 10, or 20 μmol/L, 48 hours after scratch
# Procedure: Primary cultured motor neurons were seeded in a Nun Lab-Tek Chamber Slide (Thermo Scientific) coated with poly-L-lysine at 8.0×10^4 cells/cm^2×0.7 cm^2/well and then cultured in Sumilon neuron culture medium for 48 hours. Neurites of primary motor neurons were linearly scratched off with a 200 μL sterile pipette tip. The cells were immediately rinsed with PBS and cultured in Sumilon neuron culture medium containing 0, 1, 10, or 20 μmol/L zonisamide for 48 hours. The cells were fixed in 4% paraformaldehyde and immunostained with neuron-specific β-III tubulin monoclonal antibody (1:1000, MAB1195, R&D systems) and Alexa Fluor 488-conjugated goat anti-mouse secondary antibody (Life Technologies). Images of the scratched areas were acquired on a microscope (Olympus LX71). The neurite lengths of primary motor neurons in the scratched areas were automatically measured with MetaMorph software (Universal Imaging).
# [4] = dose dependency, 1 μmol/L to 20 μmol/L, FIG. 1
compound,measurement,setting,value
"NS(=O)(=O)Cc1noc2ccccc12 [Zonisamide, 3-sulfamoylmethyl-1,2-benzisoxazole]",phosphorylation level of JNK1/2/3,JNK1/2/3,did not affect
same,"SFI (sciatic function index), motor function of hindlimbs",[1],dramatically improved
same,neurite extension of primary motor neurons (screening of the 16 drugs),"primary motor neurons [2]; culture for 48 hours, tau staining",able to extend neurites
same,axonal growth (average neurite length) in primary motor neurons,primary motor neurons [2]; [4],dose-dependent axonal growth
same,number of branch points in axons of primary motor neurons,primary motor neurons [2]; [4],dose-dependent increase
same,ratio of neurite-bearing cells in primary motor neurons,"primary motor neurons [2]; neurite length of 25 micron or more, FIG. 1",not increased
same,neurite length in the scratch assay,primary motor neurons [3],dose-dependent increase
